These results are taken from patent US9730914B2, “3,5-diaminopyrazole kinase inhibitors” (Axikin Pharmaceuticals, Inc., priority 2014, dated 2017).

In one test the target is T1, JAK3 (Homo sapiens, UniProt P52333).
T1 construct: made in house; host or cells: E. coli BL21-derived host (T7 phage) or HEK-293
Briefly: Kinase competition binding assay (Kd, qPCR readout), JAK3. To be noted: for Kd: Kd class, JAK3, read-out: JAK3 Activity Level; for RCK:JAK3 selectivity ratio: ratio Kd (JAK3): Kd (RCK). The gist of the method: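 Competition binding in which kinase, either T7 phage-tagged or HEK-293-expressed and DNA-tagged, was exposed to immobilized biotinylated ligand and test compound for 1 h at room temperature. Bead-bound kinase was eluted and quantified by qPCR. Kd came from 11-point 3-fold dilutions, top concentration 30,000 nM and 1% DMSO, repeated lower if below 0.5 nM.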

The next test addresses T2, JAK2 (Homo sapiens, UniProt O60674).
T2 construct: made in house; host or cells: E. coli BL21-derived host (T7 phage) or HEK-293
The test is described as follows: Kinase competition binding assay (Kd, qPCR readout), JAK2. To be noted: for Kd: Kd class, JAK2, read-out: JAK2 Activity Level; for RCK:JAK2 selectivity ratio: ratio Kd (JAK2): Kd(RCK). A digest of the protocol:
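Competition binding: DNA-tagged kinase (T7 phage or HEK-293-expressed), immobilized biotinylated ligand beads and compound in SeaBlock/PBS/Tween/DTT buffer, 1 hour at room temperature; bound kinase eluted and quantified by qPCR. Kd from 11-point 3-fold dilution, top 30,000 nM typically, final DMSO 1%.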
On the technique in general: Quantitative PCR measures a nucleic acid by following its amplification.

The target of test [1] is T3, kinase domain protein of RC kinase (RCK) (Homo sapiens, UniProt Q56UN5).
T3 construct: made in house; host or cells: E. coli BL21-derived host (T7 phage) or HEK-293
T3 sequence (Q56UN5 1061-1324 limits assumed): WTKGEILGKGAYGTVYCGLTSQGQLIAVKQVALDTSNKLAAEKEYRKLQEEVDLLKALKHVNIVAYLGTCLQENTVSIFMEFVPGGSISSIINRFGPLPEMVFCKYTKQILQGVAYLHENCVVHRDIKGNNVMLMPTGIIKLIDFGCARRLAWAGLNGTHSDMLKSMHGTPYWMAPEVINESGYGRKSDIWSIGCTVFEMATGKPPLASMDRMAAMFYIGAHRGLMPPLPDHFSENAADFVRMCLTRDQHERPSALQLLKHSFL
The test is described as follows: Kinase competition binding assay (Kd, qPCR readout), RC kinase. To be noted: Kd class, read-out: RCK Activity Level. The gist of the method: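 Competition binding: DNA-tagged kinase (T7 phage or HEK-293-expressed) plus immobilized biotinylated ligand beads and compound, 1 h at room temperature, 1% DMSO. Bead-bound kinase eluted and quantified by qPCR. Kd from 11-point 3-fold dilution, top 30,000 nM, retested lower if below 0.5 nM.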

T1 sequence (P52333 811-1124 limits assumed): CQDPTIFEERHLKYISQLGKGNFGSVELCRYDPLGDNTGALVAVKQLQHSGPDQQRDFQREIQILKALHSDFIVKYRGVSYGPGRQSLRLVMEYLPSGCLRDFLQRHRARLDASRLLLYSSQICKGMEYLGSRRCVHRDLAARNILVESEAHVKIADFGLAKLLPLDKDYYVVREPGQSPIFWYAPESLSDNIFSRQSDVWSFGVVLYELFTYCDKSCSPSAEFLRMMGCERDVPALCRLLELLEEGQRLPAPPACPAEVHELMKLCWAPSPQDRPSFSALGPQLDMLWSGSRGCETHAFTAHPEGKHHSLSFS
T2 sequence (O60674 840-1132 limits assumed): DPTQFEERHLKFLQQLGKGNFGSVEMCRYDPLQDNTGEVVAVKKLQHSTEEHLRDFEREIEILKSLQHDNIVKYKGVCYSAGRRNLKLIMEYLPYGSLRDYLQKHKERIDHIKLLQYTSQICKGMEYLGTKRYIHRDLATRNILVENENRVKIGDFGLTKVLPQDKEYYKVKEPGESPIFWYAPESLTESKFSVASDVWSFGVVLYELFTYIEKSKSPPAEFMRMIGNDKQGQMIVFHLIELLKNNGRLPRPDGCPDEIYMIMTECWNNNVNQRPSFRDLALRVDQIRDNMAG

For the compound `NC(=O)c1c(Nc2ccc(N3CCOCC3)c(Cl)c2)n[nH]c1NCc1ccc(O)cc1` [reference compound], on JAK3, the Kd was under 50 nM and the “RCK:JAK3 selectivity ratio” value is recorded as “C (C represents 1<Kd (JAK3): Kd (RCK)<10)”. Further, on JAK2, the Kd was under 50 nM and the “RCK:JAK2 selectivity ratio” value is listed as “D (D represents Kd(JAK2): Kd (RCK)<1)”. The Kd in test [1] was under 50 nM.
`NC(=O)c1c(Nc2ccc(N3CCSCC3)cc2)n[nH]c1NCc1ccc(O)cc1` [reference compound]: at JAK3, the Kd is under 50 nM and the “RCK:JAK3 selectivity ratio” value is “C (C represents 1<Kd (JAK3): Kd (RCK)<10)”. At JAK2, the Kd was under 50 nM and the “RCK:JAK2 selectivity ratio” value is “D (D represents Kd(JAK2): Kd (RCK)<1)”. The Kd in test [1] was under 50 nM.
Take `NC(=O)c1c(Nc2ccc(N)cc2)n[nH]c1NCc1ccc(O)cc1` [reference compound]: at JAK3, the Kd lay within 100 to 1000 nM and the “RCK:JAK3 selectivity ratio” value is listed as “D (D represents Kd (JAK3): Kd(RCK)<1)”. Besides, at JAK2, the Kd is 50 to 100 nM and the “RCK:JAK2 selectivity ratio” value was “D (D represents Kd(JAK2): Kd (RCK)<1)”. The Kd in test [1] is 100 to 1000 nM.
